Results as given in patent US6472418B1, “Non-peptide NK1 receptors antagonists” (Warner-Lambert Company, priority 1998, dated 2002).

These compounds were tested against T1, Human NK1 Receptor (Homo sapiens, UniProt P25103) (assay: In Vitro Human NK1 Receptor Binding Assay ([125I]Bolton-Hunter substance P displacement, IM9 cells)). Conditions: Human lymphoma IM9 cells, [125I]Bolton-Hunter substance P; Table 3, array-synthesis products; read-out: IC50 (nM) hNK1.
T1 construct: endogenous in cells; host or cells: Human lymphoma IM9 cells (whole cells)
T1 sequence (P25103 whole entry): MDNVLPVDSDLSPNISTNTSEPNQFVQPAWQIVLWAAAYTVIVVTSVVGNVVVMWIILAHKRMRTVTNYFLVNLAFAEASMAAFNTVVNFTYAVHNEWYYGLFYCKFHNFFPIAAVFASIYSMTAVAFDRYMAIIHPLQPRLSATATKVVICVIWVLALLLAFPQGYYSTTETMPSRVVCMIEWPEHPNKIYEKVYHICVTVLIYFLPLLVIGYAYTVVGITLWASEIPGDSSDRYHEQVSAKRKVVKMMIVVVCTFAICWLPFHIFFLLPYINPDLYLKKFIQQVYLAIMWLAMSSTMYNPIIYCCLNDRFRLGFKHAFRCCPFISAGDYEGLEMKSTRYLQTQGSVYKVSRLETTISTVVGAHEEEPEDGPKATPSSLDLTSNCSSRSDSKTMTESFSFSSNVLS
Outline: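 Radioligand displacement on whole IM9 human lymphoma cells (2.5×10^6 cells/mL) using [125I]Bolton-Hunter substance P (0.05-0.1 nM), 50 min at 21° C in Tris pH 7.4/MnCl2 buffer with protease inhibitors. Non-specific binding defined by […] [Sar9, Met(O2)11] substance P. Filtration, gamma counting, iterative curve fitting.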

Row | IC50 [nM] | SMILES
1 | 1340 | O=C(NCCSCc1ccccc1)C(Cc1c[nH]c2ccccc12)NCc1cc2ccccc2o1 (centres unmarked) [Example 296, 2-[(Benzofuran-2-ylmethyl)-amino]-N-(2-benzylsulfanyl-ethyl)-3-(1H-indol-3-yl)-propionamide]
2 | 3610 | CC(Cc1c[nH]c2ccccc12)NC(=O)C(Cc1c[nH]c2ccccc12)NCc1cc2ccccc2o1 (centres unmarked) [Example 297, 2-[(Benzofuran-2-ylmethyl)-amino]-3-(1H-indol-3-yl)-N-[2-(1H-indol-3-yl)-1-methyl-ethyl]-propionamide]
3 | 221 | O=C(NCc1ccccc1Cl)C(Cc1c[nH]c2ccccc12)NCc1cc2ccccc2o1 (centres unmarked) [Example 298, 2-[(Benzofuran-2-ylmethyl)-amino]-N-(2-chloro-benzyl)-3-(1H-indol-3-yl)-propionamide]
4 | 256 | Cc1ccc(CCNC(=O)C(Cc2c[nH]c3ccccc23)NCc2cc3ccccc3o2)cc1 (centres unmarked) [Example 300, 2-[(Benzofuran-2-ylmethyl)-amino]-3-(1H-indol-3-yl)-N-(2-p-tolyl-ethyl)-propionamide]
5 | 53 | O=C(NCc1ccc(F)cc1F)C(Cc1c[nH]c2ccccc12)NCc1cc2ccccc2o1 (centres unmarked) [Example 301, 2-[(Benzofuran-2-ylmethyl)-amino]-N-(2,4-difluoro-benzyl)-3-(1H-indol-3-yl)-propionamide]
6 | 174 | O=C(NCc1ccccc1Br)C(Cc1c[nH]c2ccccc12)NCc1cc2ccccc2o1 (centres unmarked) [Example 302, 2-[(Benzofuran-2-ylmethyl)-amino]-N-(2-bromo-benzyl)-3-(1H-indol-3-yl)-propionamide]
7 | 17 | O=C(NCc1cc(F)cc(C(F)(F)F)c1)C(Cc1c[nH]c2ccccc12)NCc1cc2ccccc2o1 (centres unmarked) [Example 303, 2-[(Benzofuran-2-ylmethyl)-amino]-N-(3-fluoro-5-trifluoromethyl-benzyl)-3-(1H-indol-3-yl)-propionamide]
8 | 43 | COC(=O)C(NC(=O)C(Cc1c[nH]c2ccccc12)NCc1cc2ccccc2o1)c1ccccc1 (centres unmarked) [Example 304, [2-[(Benzofuran-2-ylmethyl)-amino]-3-(1H-indol-3-yl)-propionylamino]-phenyl-acetic acid methyl ester]
9 | 400 | O=C(NCCOc1ccccc1)C(Cc1c[nH]c2ccccc12)NCc1cc2ccccc2o1 (centres unmarked) [Example 305, 2-[(Benzofuran-2-ylmethyl)-amino]-3-(1H-indol-3-yl)-N-(2-phenoxy-ethyl)-propionamide]
10 | 639 | Nc1ccc(CNC(=O)C(Cc2c[nH]c3ccccc23)NCc2cc3ccccc3o2)cc1 (centres unmarked) [Example 306, N-(4-Amino-benzyl)-2-[(benzofuran-2-ylmethyl)-amino]-3-(1H-indol-3-yl)-propionamide]
11 | 392 | CC(CCc1ccccc1)NC(=O)C(Cc1c[nH]c2ccccc12)NCc1cc2ccccc2o1 (centres unmarked) [Example 307, 2-[(Benzofuran-2-ylmethyl)-amino]-3-(1H-indol-3-yl)-N-(1-methyl-3-phenyl-propyl)-propionamide]
12 | 731 | O=C(NCc1cccc(O)c1)C(Cc1c[nH]c2ccccc12)NCc1cc2ccccc2o1 (centres unmarked) [Example 308, 2-[(Benzofuran-2-ylmethyl)-amino]-N-(3-hydroxy-benzyl)-3-(1H-indol-3-yl)-propionamide]

Same assay, conditions: human NK1 receptor, IM9 cells, [125I]Bolton-Hunter substance P; read-out: IC50 (nM) hNK1

Row | IC50 [nM] | SMILES
13 | 1280 | CC(Cc1c[nH]c2ccccc12)(NCc1cc2ccccc2o1)C(=O)NCc1ccccn1 (centres unmarked) [compound 23, 2-[(Benzofuran-2-ylmethyl)-amino]-3 (1H-indol-3-yl)-2-methyl-N-pyridin-2 ylmethyl-propionamide]
14 | 547 | CC(Cc1c[nH]c2ccccc12)(NCc1cc2ccccc2o1)C(=O)NCc1cccnc1 (centres unmarked) [compound 24, 2-[(Benzofuran-2-ylmethyl)-amino]-3-(1H-indol-3-yl)-2-methyl-N-pyridin-3-ylmethyl-propionamide]
15 | 131 | CC(Cc1c[nH]c2ccccc12)(NCc1cc2ccccc2o1)C(=O)NCc1ccncc1 (centres unmarked) [compound 25, 2-[(Benzofuran-2-ylmethyl)-amino]-3-(1H-indol-3-yl)-2-methyl-N-pyridin-4-ylmethyl-propionamide]
16 | 1010 | CC(Cc1c[nH]c2ccccc12)(NCc1cc2ccccc2o1)C(=O)NC1CCCCC1 (centres unmarked) [compound 26, 2-[(Benzofuran-2-ylmethyl)-amino]-N-cyclohexyl-3-(1H-indol-3-yl)-2-methyl-propionamide]
17 | 311 | CC(Cc1c[nH]c2ccccc12)(NCc1cc2ccccc2o1)C(=O)NCC1CCCCC1 (centres unmarked) [compound 27, 2-[(Benzofuran-2-ylmethyl)-amino]-N-cyclohexylmethyl-3-(1H-indol-3-yl)-2-methyl-propionamide]
18 | 44 | CC(Cc1c[nH]c2ccccc12)(NCc1cc2ccccc2o1)C(=O)NCc1ccccc1 (centres unmarked) [compound 28, 2-[(Benzofuran-2-ylmethyl)-amino]-N-benzyl-3-(1H-indol-3-yl)-2-methyl-propionamide]
19 | 7 | CC(Cc1c[nH]c2ccccc12)(NCc1cc2ccccc2o1)C(=O)NC(CO)c1ccccc1 (centres unmarked) [compound 29, 2-[(Benzofuran-2-ylmethyl)-amino]-N-(2-hydroxy-1-phenyl-ethyl)-3-(1H-indol-3-yl)-2-methyl-propionamide]
20 | 17 | CC(NC(=O)C(C)(Cc1c[nH]c2ccccc12)NCc1cc2ccccc2o1)c1ccc(Cl)cc1 (centres unmarked) [compound 30, 2-[(Benzofuran-2-ylmethyl)-amino]-N-[1-(4-chloro-phenyl)-ethyl]-3-(1H-indol-3-yl)-2-methyl-propionamide]
21 | > 10000 | CC(NC(=O)C(C)(Cc1c[nH]c2ccccc12)NCc1cc2ccccc2o1)c1cccc2ccccc12 (centres unmarked) [compound 31, 2-[(Benzofuran-2-ylmethyl)amino]-3-(1H-indol-3-yl)-2-methyl-N-(1-naphthalen-1-yl-ethyl)-propionamide]
22 | > 10000 | CC(NC(=O)C(C)(Cc1c[nH]c2ccccc12)NCc1cc2ccccc2o1)c1cccc2ccccc12 (centres unmarked) [compound 32, 2-[(Benzofuran-2-ylmethyl)-amino]-3-(1H-indol-3-yl)-2-methyl-N-(1-naphthalen-1-yl-ethyl)-propionamide]
23 | 9 | CC(NC(=O)C(C)(Cc1c[nH]c2ccccc12)NCc1cc2ccccc2o1)c1ccc(F)cc1 (centres unmarked) [compound 33, 2-[(Benzofuran-2-ylmethyl)-amino]-N-[1-(4-fluoro-phenyl)-ethyl]-3-(1H-indol-3-yl)-2-methyl-propionamide]
24 | 14 | CC(NC(=O)C(C)(Cc1c[nH]c2ccccc12)NCc1cc2ccccc2o1)c1ccc([N+](=O)[O-])cc1 (centres unmarked) [compound 34, 2-[(Benzofuran-2-ylmethyl)-amino]-3-(1H-indol-3-yl)-2-methyl-N-[1-(4-nitro-phenyl)-ethyl]-propionamide]
25 | 31 | COc1ccc(C(C)NC(=O)C(C)(Cc2c[nH]c3ccccc23)NCc2cc3ccccc3o2)cc1 (centres unmarked) [compound 35, 2-[(Benzofuran-2-ylmethyl)-amino]-3-(1H-indol-3-yl)-N-[1-(4-methoxy-phenyl)-ethyl]-2-methyl-propionamide]
26 | 1620 | CC(NC(=O)C(C)(Cc1c[nH]c2ccccc12)NCc1cc2ccccc2o1)c1ccccc1N (centres unmarked) [compound 36, N-[1-(2-Amino-phenyl)-ethyl]-2-[(benzofuran-2-ylmethyl)-amino]-3-(1H-indol-3-yl)-2-methyl-propionamide]
27 | 364 | CC(NC(=O)C(C)(Cc1c[nH]c2ccccc12)NCc1cc2ccccc2o1)c1cccc(N)c1 (centres unmarked) [compound 37, N-[1-(3-Amino-phenyl)-ethyl]-2-[(benzofuran-2-ylmethyl)-amino]-3-(1H-indol-3-yl)-2-methyl-propionamide]
28 | 141 | CC(NC(=O)C(C)(Cc1c[nH]c2ccccc12)NCc1cc2ccccc2o1)c1ccc(N)cc1 (centres unmarked) [compound 38, N-[1-(4-Amino-phenyl)-ethyl]-2-[(benzofuran-2-ylmethyl)-amino]-3-(1H-indol-3-yl)-2-methyl-propionamide]
29 | 863 | CC(NC(=O)C(C)(Cc1c[nH]c2ccccc12)NCc1cc2ccccc2o1)c1ccc(N(C)C)cc1 (centres unmarked) [compound 39, 2-[(Benzofuran-2-ylmethyl)-amino]-N-[1-(4-dimethylamino-phenyl)-ethyl]-3-(1H-indol-3-yl)-2-methyl-propionamide]
30 | 1060 | CC(NC(=O)C(C)(Cc1c[nH]c2ccccc12)NCc1cc2ccccc2o1)c1cccc(N(C)C)c1 (centres unmarked) [compound 40, 2-[(Benzofuran-2-ylmethyl)-amino)-N-[1-(3-dimethylamino-phenyl)-ethyl]-3-(1H-indol-3-yl)-2-methyl-propionamide]
31 | 19 | CC(NC(=O)C(C)(Cc1c[nH]c2ccccc12)NCc1cc2ccccc2o1)c1ccsc1 (centres unmarked) [compound 41, 2-[(Benzofuran-2-ylmethyl)-amino]-3-(1H-indol-3-yl)-2-methyl-N-(1-thiophen-3-yl-ethyl)-propionamide]
32 | 3610 | CC(Cc1c[nH]c2ccccc12)(NCc1cc2ccccc2o1)C(=O)NCc1ncc(C(=O)O)c(O)n1 (centres unmarked) [compound 43, 2-{[2-[(Benzofuran-2-ylmethyl)-amino]-3-(1H-indol-3-yl)-2-methyl-propionylamino]-methyl}-4-hydroxy-pyrimidine-5-carboxylic acid]
33 | 151 | CC(NC(=O)C(C)(Cc1c[nH]c2ccccc12)NCc1cc2ccccc2o1)c1cccnc1 (centres unmarked) [compound 44, 2-[(Benzofuran-2-ylmethyl)-amino]-3-(1H-indol-3-yl)-2-methyl-N-(1-pyridin-3-yl-ethyl)-propionamide]
34 | 913 | CC(Cc1c[nH]c2ccccc12)(NCc1cc2ccccc2o1)C(=O)NCCc1ccccn1 (centres unmarked) [compound 45, 2-[(Benzofuran-2-ylmethyl)-amino]-3-(1H-indol-3-yl)-2-methyl-N-(2-pyridin-2-yl-ethyl)-propionamide]

Row | SMILES | IC50 [nM]
35 | CC(NC(=O)C(C)(Cc1c[nH]c2ccccc12)NCc1cc2ccccc2o1)c1ccccc1 (centres unmarked) [compound 42, 2-[(Benzofuran-2-ylmethyl)-amino]-3-(1H-indol-3-yl)-2-methyl-N-(1-phenyl-ethyl)-propionamide] | 261
